Experimental data reported in patent US20240239781A1, “1H-PYRAZOLE DERIVATIVES AS SIGMA LIGANDS” (ACONDICIONAMIENTO TARRASENSE, priority 2021, published 2024).

Legend:
human σ1 receptor = biological target: T1, human σ1 receptor (Homo sapiens, UniProt Q99720); test: Human σ1 receptor radioligand assay ([3H](+)-pentazocine, transfected HEK-293 membranes); conditions: class scale, read-out: Binding σ-1 Ki
T1 construct: expressed in transfected cells; host or cells: HEK-293
Method: Transfected HEK-293 membranes (7 μg) were incubated with 5 nM of [^3H](+)-pentazocine in assay buffer containing Tris-HCl 50 mM at pH 8. NBS (non-specific binding) was measured by adding 10 μM haloperidol. The binding of the test compound was measured at either one concentration (% inhibition at 1 or 10 μM) or five different concentrations to determine affinity values (Ki). Plates were incubated at 37° C. for 120 minutes. After the incubation period, the reaction mix was then transferred to MultiScreen HTS, FC plates (Millipore), filtered and plates were washed 3 times with ice-cold 10 mM Tris-HCL (pH7.4). Filters were dried and counted at approximately 40% efficiency in a MicroBeta scintillation counter (Perkin-Elmer) using EcoScint liquid scintillation cocktail.

human σ2/TMEM97 receptor = biological target: T2, human σ2/TMEM97 receptor (Homo sapiens, UniProt Q5BJF2); test: Binding assay to human σ2/TMEM97 receptor ([3H]-DTG, transfected HEK-293 membranes); conditions: class scale, read-out: Binding σ-2 Ki
T2 construct: expressed in transfected cells; host or cells: HEK-293
Method: Transfected HEK-293 membranes (15 μg) were incubated with 10 nM [^3H]-1,3-Di-o-tolylguanidine (DTG) in assay buffer containing Tris-HCl 50 mM at pH 8.0. NSB (non-specific binding) was measured by adding 10 μM haloperidol. The binding of the test compound was measured at either one concentration (% inhibition at 1 or 10 μM) or five different concentrations to determine affinity values (Ki). Plates were incubated at 25° C. for 120 minutes. After the incubation period, the reaction mix was transferred to MultiScreen HTS, FC plates (Millipore), filtered and washed 3 times with ice-cold 10 mM Tris-HCL (pH 8.0). Filters were dried and counted at approximately 40% efficiency in a MicroBeta scintillation counter (Perkin-Elmer) using EcoScint liquid scintillation cocktail.

T1 sequence (Q99720 whole entry): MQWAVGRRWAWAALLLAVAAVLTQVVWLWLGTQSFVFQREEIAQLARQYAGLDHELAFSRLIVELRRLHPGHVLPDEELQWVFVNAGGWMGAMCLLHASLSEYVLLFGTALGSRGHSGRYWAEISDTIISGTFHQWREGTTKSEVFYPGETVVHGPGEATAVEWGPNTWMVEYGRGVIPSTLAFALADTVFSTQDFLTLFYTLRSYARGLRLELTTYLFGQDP
T2 sequence (Q5BJF2 whole entry): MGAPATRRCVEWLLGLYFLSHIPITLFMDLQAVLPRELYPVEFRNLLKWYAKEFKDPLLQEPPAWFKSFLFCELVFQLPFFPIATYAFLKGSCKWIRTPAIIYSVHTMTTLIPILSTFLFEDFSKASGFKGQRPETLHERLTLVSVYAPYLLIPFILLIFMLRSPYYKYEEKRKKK

| Structure (SMILES) | Ki (human σ1 receptor) | Ki (human σ2/TMEM97 receptor) |
| --- | --- | --- |
| CC(C)CCNC1CCCCN(Cc2c(-c3cccnc3)nn(C)c2Cl)C1 (stereo not shown) [Example 31, 1-((5-Chloro-1-methyl-3-(pyridin-3-yl)-1H-pyrazol-4-yl)methyl)-N-isopentylazepan-3-amine] | 500 to 1000 nM | > 1000 nM |
| CC(C)CCNC1CCCCN(Cc2c(-c3nccn3C)nn(C)c2Cl)C1 (stereo not shown) [Example 32, 1-((5-Chloro-1-methyl-3-(1-methyl-1H-imidazol-2-yl)-1H-pyrazol-4-yl)methyl)-N-isopentylazepan-3-amine] | > 1000 nM | 100 to 500 nM |
| Cn1nc(-c2ccon2)c(CN2CCCCC(NCCC(C)(C)C)C2)c1Cl (stereo not shown) [Example 33, 1-((5-Chloro-3-(isoxazol-3-yl)-1-methyl-1H-pyrazol-4-yl)methyl)-N-(3,3-dimethylbutyl)azepan-3-amine] | 100 to 500 nM | 100 to 500 nM |
| CC(C)CCNC1CCCCN(Cc2c(-c3ccon3)nn(C)c2Cl)C1 (stereo not shown) [Example 34, 1-((5-Chloro-3-(isoxazol-3-yl)-1-methyl-1H-pyrazol-4-yl)methyl)-N-isopentylazepan-3-amine] | 500 to 1000 nM | 100 to 500 nM |
| COc1ccc(-c2nn(C)c(Cl)c2CN2CCCCC(NCCC(C)(C)C)C2)nc1 (stereo not shown) [Example 35, 1-((5-Chloro-3-(5-methoxypyridin-2-yl)-1-methyl-1H-pyrazol-4-yl)methyl)-N-(3,3-dimethylbutyl)azepan-3-amine] | 500 to 1000 nM | > 1000 nM |
| COc1ccc(-c2nn(C)c(Cl)c2CN2CCCCC(NCCC(C)C)C2)nc1 (stereo not shown) [Example 36, 1-((5-Chloro-3-(5-methoxypyridin-2-yl)-1-methyl-1H-pyrazol-4-yl)methyl)-N-isopentylazepan-3-amine] | 500 to 1000 nM | > 1000 nM |
| Cc1onc(-c2nn(C)c(Cl)c2CN2CCCCC(NCCC(C)C)C2)c1C (stereo not shown) [Example 37, 1-((5-Chloro-3-(4,5-dimethylisoxazol-3-yl)-1-methyl-1H-pyrazol-4-yl)methyl)-N-isopentylazepan-3-amine] | 100 to 500 nM | 100 to 500 nM |
| Cc1onc(-c2nn(C)c(Cl)c2CN2CCCCC(NCCC(C)(C)C)C2)c1C (stereo not shown) [Example 38, 1-((5-Chloro-3-(4,5-dimethylisoxazol-3-yl)-1-methyl-1H-pyrazol-4-yl)methyl)-N-(3,3-dimethylbutyl)azepan-3-amine] | 100 to 500 nM | 100 to 500 nM |
| CC(C)CCNC1CCCCN(Cc2c(-c3cccc(O)n3)nn(C)c2Cl)C1 (stereo not shown) [Example 39, 6-(5-Chloro-4-((3-(isopentylamino)azepan-1-yl)methyl)-1-methyl-1H-pyrazol-3-yl)pyridin-2-ol] | 500 to 1000 nM | 100 to 500 nM |
| CC(C)CCN[C@H]1CCCCN(Cc2c(-c3noc4c3COCC4)nn(C)c2Cl)C1 [Example 40, (S)-1-((5-Chloro-3-(6,7-dihydro-4H-pyrano[3,4-d]isoxazol-3-yl)-1-methyl-1H-pyrazol-4-yl)methyl)-N-isopentylazepan-3-amine] | 100 to 500 nM | 100 to 500 nM |
| Cc1cc(-c2nn(C)c(Cl)c2CN2CCC(CNCCC(C)C)CC2)no1 [Example 41, N-((1-((5-Chloro-1-methyl-3-(5-methylisoxazol-3-yl)-1H-pyrazol-4-yl)methyl)piperidin-4-yl)methyl)-3-methylbutan-1-amine] | 100 to 500 nM | 100 to 500 nM |
| Cc1cc(-c2nn(C)c(Cl)c2CN2CCC(CN(CC(C)C)CC(C)C)C2)no1 (stereo not shown) [Example 42, N-((1-((5-Chloro-1-methyl-3-(5-methylisoxazol-3-yl)-1H-pyrazol-4-yl)methyl)pyrrolidin-3-yl)methyl)-/-isobutyl-2-methylpropan-1-amine] | > 1000 nM | 100 to 500 nM |
| Cc1cc(-c2nn(C)c(Cl)c2CN2CCC(CNCC(C)C)CC2)no1 [Example 43, N-((1-((5-Chloro-1-methyl-3-(5-methylisoxazol-3-yl)-1H-pyrazol-4-yl)methyl)piperidin-4-yl)methyl)-2-methylpropan-1-amine] | 500 to 1000 nM | 500 to 1000 nM |
| Cc1cc(-c2nn(C)c(Cl)c2CN2CCC(CNCc3ccccc3)C2)no1 (stereo not shown) [Example 44, N-Benzyl-1-(1-((5-chloro-1-methyl-3-(5-methylisoxazol-3-yl)-1H-pyrazol-4-yl)methyl)pyrrolidin-3-yl)methanamine] | 500 to 1000 nM | 500 to 1000 nM |
| Cc1cc(-c2nn(C)c(Cl)c2CN2CCC(CNCCc3ccccc3)C2)no1 (stereo not shown) [Example 45, N-((1-((5-Chloro-1-methyl-3-(5-methylisoxazol-3-yl)-1H-pyrazol-4-yl)methyl)pyrrolidin-3-yl)methyl)-2-phenylethanamine] | 100 to 500 nM | 100 to 500 nM |
| CCCN(CCC)CC1CCN(Cc2c(-c3cc(C)on3)nn(C)c2Cl)C1 (stereo not shown) [Example 46, N-((1-((5-Chloro-1-methyl-3-(5-methylisoxazol-3-yl)-1H-pyrazol-4-yl)methyl)pyrrolidin-3-yl)methyl)-N-propylpropan-1-amine] | 100 to 500 nM | > 1000 nM |
| CCCNCC1CCN(Cc2c(-c3cc(C)on3)nn(C)c2Cl)C1 (stereo not shown) [Example 47, N-((1-((5-Chloro-1-methyl-3-(5-methylisoxazol-3-yl)-1H-pyrazol-4-yl)methyl)pyrrolidin-3-yl)methyl)propan-1-amine] | > 1000 nM | > 1000 nM |
| Cc1cc(-c2nn(C)c(Cl)c2CN2CCCC(CNCC(C)C)C2)no1 (stereo not shown) [Example 48, N-((1-((5-Chloro-1-methyl-3-(5-methylisoxazol-3-yl)-1H-pyrazol-4-yl)methyl)piperidin-3-yl)methyl)-2-methylpropan-1-amine] | > 1000 nM | 100 to 500 nM |

Results, then the compound that gave them:

| Ki (human σ1 receptor) | Ki (human σ2/TMEM97 receptor) | Structure (SMILES) |
| --- | --- | --- |
| 100 to 500 nM | > 1000 nM | Cc1cc(-c2nn(C)c(Cl)c2CN2CCC(CNCC(C)C)C2)no1 (stereo not shown) [Example 49, N-((1-((5-Chloro-1-methyl-3-(5-methylisoxazol-3-yl)-1H-pyrazol-4-yl)methyl)pyrrolidin-3-yl)methyl)-2-methylpropan-1-amine] |
| 100 to 500 nM | < 100 nM | Cc1cc(-c2nn(C)c(Cl)c2CN2CCC3(CC2)CCN(CCC(C)(C)C)C3)no1 [Example 50, 3-(5-Chloro-4-((2-(3,3-dimethylbutyl)-2,8-diazaspiro[4.5]decan-8-yl)methyl)-1-methyl-1H-pyrazol-3-yl)-5-methylisoxazole] |
| < 100 nM | < 100 nM | Cc1cc(-c2nn(C)c(Cl)c2CN2CC3(CCN(CCC(C)(C)C)C3)C2)no1 [Example 51, 3-(5-Chloro-4-((6-(3,3-dimethylbutyl)-2,6-diazaspiro[3.4]octan-2-yl)methyl)-1-methyl-1H-pyrazol-3-yl)-5-methylisoxazole] |
| < 100 nM | < 100 nM | Cc1cc(-c2nn(C)c(Cl)c2CN2CCC3(C2)CN(CCC(C)(C)C)C3)no1 [Example 52, 3-(5-Chloro-4-((2-(3,3-dimethylbutyl)-2,6-diazaspiro[3.4]octan-6-yl)methyl)-1-methyl-1H-pyrazol-3-yl)-5-methylisoxazole] |
| 100 to 500 nM | < 100 nM | Cc1cc(-c2nn(C)c(Cl)c2CN2CCC3(CCN(CCC(C)(C)C)CC3)CC2)no1 [Example 53, 3-(5-Chloro-4-((9-(3,3-dimethylbutyl)-3,9-diazaspiro[5.5]undecan-3-yl)methyl)-1-methyl-1H-pyrazol-3-yl)-5-methylisoxazole] |
| < 100 nM | < 100 nM | Cc1cc(-c2nn(C)c(Cl)c2CN2CCC3(CCN(CCC(C)(C)C)C3)C2)no1 (stereo not shown) [Example 54, 3-(5-Chloro-4-((7-(3,3-dimethylbutyl)-2,7-diazaspiro[4.4]nonan-2-yl)methyl)-1-methyl-1H-pyrazol-3-yl)-5-methylisoxazole] |
| > 1000 nM | 100 to 500 nM | Cc1cc(-c2nn(C)c(Cl)c2CN2CCCC(CNCc3ccccc3)C2)no1 (stereo not shown) [Example 55, N-Benzyl-1-(1-((5-chloro-1-methyl-3-(5-methylisoxazol-3-yl)-1H-pyrazol-4-yl)methyl)piperidin-3-yl)methanamine] |
| 100 to 500 nM | 100 to 500 nM | Cc1cc(-c2nn(C)c(Cl)c2CN2CCC(CNCc3ccccc3)CC2)no1 [Example 56, N-Benzyl-1-(1-((5-chloro-1-methyl-3-(5-methylisoxazol-3-yl)-1H-pyrazol-4-yl)methyl)piperidin-4-yl)methanamine] |
| 500 to 1000 nM | 100 to 500 nM | Cc1cc(-c2nn(C)c(Cl)c2CN2CCCC(CNCCc3ccccc3)C2)no1 (stereo not shown) [Example 57, N-((1-((5-Chloro-1-methyl-3-(5-methylisoxazol-3-yl)-1H-pyrazol-4-yl)methyl)piperidin-3-yl)methyl)-2-phenylethanamine] |
| 100 to 500 nM | < 100 nM | Cc1cc(-c2nn(C)c(Cl)c2CN2CCCC(CNCCC(C)C)C2)no1 (stereo not shown) [Example 58, N-((1-((5-Chloro-1-methyl-3-(5-methylisoxazol-3-yl)-1H-pyrazol-4-yl)methyl)piperidin-3-yl)methyl)-3-methylbutan-1-amine] |
| 500 to 1000 nM | 100 to 500 nM | Cc1cc(-c2nn(C)c(Cl)c2CN2CCCCC(CNCCC(C)C)C2)no1 (stereo not shown) [Example 59, N-((1-((5-Chloro-1-methyl-3-(5-methylisoxazol-3-yl)-1H-pyrazol-4-yl)methyl)azepan-3-yl)methyl)-3-methylbutan-1-amine] |
